The values below come from ChEMBL document CHEMBL5724709, “EUbOPEN Chemogenomics Library - IncuCyte” (2024).

Holding throughout (format): toxicity, cell-based
The test system of one data set is HEK-293T. As to the kind of experiment: Incucyte cell viability with HEK293T. To be noted: human, 24 h, 10 µM, compound concentration 10 uM.
The next data set relates to Fibroblast. As to the kind of experiment: Incucyte cell viability with human fibroblast. To be noted: 24 h, 10 µM, compound concentration 10 uM.
A further data set has as its system U2OS. As to the kind of experiment: Incucyte cell viability with U2OS. The note with it: human, 24 h, 10 µM, compound concentration 10 uM.
Also: unitless GR value; below 1 slowed growth and below 0 cell loss.

With `NC(=O)c1ccc(Oc2ccc(C(N)=O)cc2)cc1`, the “Growth Rate” value in the data set on HEK-293T (replicate number 1), with Fibroblast (replicate number 1) and with U2OS (replicate number 1) was 1 each time.
For the molecule `COc1ccccc1C(=O)Nc1cc2c(cc1N1CCCCC1)n(C)c(=O)n2C`, the “Growth Rate” value in the data set on HEK-293T (replicate number 1) is listed as 0.58; in the data set on HEK-293T (replicate number 2), 0.99; with Fibroblast (replicate number 1) it was 1; in the data set on U2OS (replicate number 1), 1.
In the case of `O=C(CCl)Nc1ccc(S(=O)(=O)c2ccc(NC(=O)CCl)cc2)cc1`, the “Growth Rate” value was -0.4 in the data set with HEK-293T (replicate number 1); -0.18 with HEK-293T (replicate number 2); -0.61 in the data set on Fibroblast (replicate number 1); -0.63 with Fibroblast (replicate number 2); -0.42 in the data set on U2OS (replicate number 1); 0.05 with U2OS (replicate number 2).
As for `COc1cc2c(NC3CCN(C4CCCCC4)CC3)nc(N3CCCN(C(C)C)CC3)nc2cc1OCCCN1CCCCC1`, the “Growth Rate” value with HEK-293T (replicate number 1) is listed as -0.52; in the data set on HEK-293T (replicate number 2), -0.39; in the data set with Fibroblast (replicate number 1), 0.42; in the data set on Fibroblast (replicate number 2), 0.22; in the data set with U2OS (replicate number 1) it was -0.09; in the data set on U2OS (replicate number 2), 0.29.
With `COc1cc2c(NC3CCN(CC4CCCCC4)CC3)nc(N3CCCN(C(C)C)CC3)nc2cc1OCCCN1CCCCC1`, the “Growth Rate” value in the data set on HEK-293T (replicate number 1) is reported as -0.58; in the data set on HEK-293T (replicate number 2), -0.42; in the data set on Fibroblast (replicate number 1) it was -0.44; in the data set with Fibroblast (replicate number 2) it was -0.13; in the data set with U2OS (replicate number 1), -0.52; with U2OS (replicate number 2), -0.15.
For the molecule `NC(=O)[C@H]1CCCCc2c1[nH]c1ccc(Cl)cc21`, the “Growth Rate” value with HEK-293T (replicate number 1) is 0.84; in the data set with HEK-293T (replicate number 2), 1; with Fibroblast (replicate number 1) it was 1; in the data set with U2OS (replicate number 1), 0.17; in the data set on U2OS (replicate number 2), 1.
Take `O=C(NCC(=O)N1CCCCC1)Nc1ccc2nnsc2c1`: the “Growth Rate” value with HEK-293T (replicate number 1) is on record as 0.75; in the data set on HEK-293T (replicate number 2), 0.97; in the data set on Fibroblast (replicate number 1), 0.36; in the data set on Fibroblast (replicate number 2) it was -0.42; with U2OS (replicate number 1) it was 0.93.
With `Nc1ccccc1NC(=O)CCCCCC(=O)Nc1ccccc1`, the “Growth Rate” value is 1 with HEK-293T (replicate number 1); 1 in the data set on Fibroblast (replicate number 1); -0.07 in the data set with Fibroblast (replicate number 2); 0.46 in the data set on U2OS (replicate number 1); 1 with U2OS (replicate number 2).
As for `Cc1ccc(NC2=CC(=O)c3sc(C)nc3C2=O)cc1`, the “Growth Rate” value was -0.37 in the data set on HEK-293T (replicate number 1); -0.23 in the data set on HEK-293T (replicate number 2); -0.84 with Fibroblast (replicate number 1); -0.96 in the data set on Fibroblast (replicate number 2); -0.86 in the data set on U2OS (replicate number 1); -0.45 in the data set on U2OS (replicate number 2).
For `CCOC(=O)NCCCC(=O)NCCc1ccccc1`, the “Growth Rate” value in the data set with HEK-293T (replicate number 1) was 0.61; in the data set with HEK-293T (replicate number 2) it was 0.8; in the data set on Fibroblast (replicate number 1) it was 1; in the data set with U2OS (replicate number 1), 0.48; with U2OS (replicate number 2) it was 0.84.
On to `CC(C)C(=O)SCCCCCCC(=O)Nc1nc(-c2ccccc2)cs1`, for which the “Growth Rate” value was 0.55 in the data set on HEK-293T (replicate number 1); 1 in the data set with Fibroblast (replicate number 1); -0.31 with Fibroblast (replicate number 2); -0.42 in the data set with U2OS (replicate number 1); 0.02 in the data set with U2OS (replicate number 2).
With `CC1=NN(c2ccc(C(=O)O)cc2)C(=O)/C1=C/c1ccc(-c2cc(C)c(C)cc2[N+](=O)[O-])o1`, the “Growth Rate” value with HEK-293T (replicate number 1) was 0.84; with HEK-293T (replicate number 2) it was 1; in the data set on Fibroblast (replicate number 1), 1; with U2OS (replicate number 1) it was 0.18; in the data set with U2OS (replicate number 2) it was 1.
With `COC(=O)C[C@@H]1N=C(c2ccc(Cl)cc2)c2c(sc(C)c2C)-n2c(C)nnc21`, the “Growth Rate” value stood at 0.62 with HEK-293T (replicate number 1); 0.77 in the data set with HEK-293T (replicate number 2); 1 with Fibroblast (replicate number 1); 0.73 in the data set with Fibroblast (replicate number 2); 1 in the data set on U2OS (replicate number 1).
Consider `COc1ccc2nc3[nH]nc(C)c3c(NCCOCCO)c2c1`, for which the “Growth Rate” value in the data set on HEK-293T (replicate number 1) was 0.57; with HEK-293T (replicate number 2), 0.77; in the data set with Fibroblast (replicate number 1), 0.52; in the data set on Fibroblast (replicate number 2), 0.43; in the data set on U2OS (replicate number 1), 0.89; in the data set with U2OS (replicate number 2), 1.
Consider `Cc1cc(C)c(CNC(=O)c2cc(-c3ccc(N4CCN(C)CC4)nc3)cc3c2c(C)cn3C(C)C)c(=O)[nH]1`, for which the “Growth Rate” value in the data set with HEK-293T (replicate number 1) is 0.42; in the data set with HEK-293T (replicate number 2) it was 0.79; in the data set on Fibroblast (replicate number 1) it was 1; with U2OS (replicate number 1), 0.61; in the data set on U2OS (replicate number 2), 0.86.
For `COc1ccc(/C=C/C(=O)NO)c(-c2ccc(-c3ccccc3)cc2)c1`, the “Growth Rate” value in the data set with HEK-293T (replicate number 1) is recorded as 0.41; with HEK-293T (replicate number 2), 0.49; in the data set on Fibroblast (replicate number 1), -0.1; in the data set with Fibroblast (replicate number 2), -0.52; in the data set on U2OS (replicate number 1), -0.07; in the data set on U2OS (replicate number 2), 1.
In the case of `CC1(C)c2cccc(C(=O)NO)c2CN1c1cnc(C(F)(F)F)cn1`, the “Growth Rate” value in the data set with HEK-293T (replicate number 1) is reported as 0.61; in the data set on HEK-293T (replicate number 2), 0.71; in the data set on Fibroblast (replicate number 1) it was 1; in the data set on Fibroblast (replicate number 2), -0.04; with U2OS (replicate number 1), 0.15; with U2OS (replicate number 2), 1.
Take `COc1cc2c(NC3CCN(C)CC3)cc(-c3ccc(C)o3)nc2cc1OCCCN1CCCC1`: the “Growth Rate” value in the data set with HEK-293T (replicate number 1) is -0.35; in the data set with HEK-293T (replicate number 2), -0.25; in the data set with Fibroblast (replicate number 1), 0.13; in the data set on Fibroblast (replicate number 2), -0.42; with U2OS (replicate number 1), -0.74; with U2OS (replicate number 2), -0.55.
In the case of `Cc1cc(/N=N/c2ccc3c(c2)CCC(=O)N3)c(N)cc1O`, the “Growth Rate” value is 0.63 with HEK-293T (replicate number 1); 0.88 in the data set on HEK-293T (replicate number 2); 1 in the data set on Fibroblast (replicate number 1); 0.36 in the data set with U2OS (replicate number 1); 1 in the data set with U2OS (replicate number 2).
In the case of `CC(=O)Nc1ccc(C(=O)Nc2ccc(F)cc2N)cc1`, the “Growth Rate” value in the data set with HEK-293T (replicate number 1) was determined as 0.67; in the data set on HEK-293T (replicate number 2), 1; with Fibroblast (replicate number 1), 1; with U2OS (replicate number 1), 1.
As to `COc1nc(Nc2cc(S(C)(=O)=O)ccc2N[C@@H](c2cccc3c2OC(F)(F)O3)c2ncccc2Cl)nc(N2CCNCC2)n1`, the “Growth Rate” value in the data set on HEK-293T (replicate number 1) was -0.57; in the data set on HEK-293T (replicate number 2), -0.39; with Fibroblast (replicate number 1), -0.22; in the data set with Fibroblast (replicate number 2), -0.7; in the data set with U2OS (replicate number 1), -0.91; in the data set with U2OS (replicate number 2) it was -0.02.
`CC(C)(CNC(=O)c1cccc(-c2noc(C(F)(F)F)n2)c1)c1coc(-c2ccccc2)n1`: the “Growth Rate” value is given as 0.69 with HEK-293T (replicate number 1); 0.79 in the data set on HEK-293T (replicate number 2); 0.48 in the data set with Fibroblast (replicate number 1); 0.8 in the data set on Fibroblast (replicate number 2); 1 in the data set with U2OS (replicate number 1).
Take `Cc1ncccc1-c1cnc(NCc2c(F)ccc3c2CCO3)n2cnnc12`: the “Growth Rate” value in the data set with HEK-293T (replicate number 1) came to 0.64; in the data set with HEK-293T (replicate number 2), 1; in the data set with Fibroblast (replicate number 1) it was 0.59; in the data set on Fibroblast (replicate number 2), 0.1; in the data set with U2OS (replicate number 1), 1; in the data set with U2OS (replicate number 2) it was 0.88.
Turning to `CC(C)(C)OC(=O)Nc1ccc(-c2cc(C(=O)NCCCCCCC(=O)NO)no2)cc1`, the “Growth Rate” value in the data set on HEK-293T (replicate number 1) is listed as 0.72; in the data set on HEK-293T (replicate number 2), 0.67; with Fibroblast (replicate number 1) it was 1; in the data set with Fibroblast (replicate number 2), -0.09; with U2OS (replicate number 1), 0.28; in the data set on U2OS (replicate number 2), 0.63.
For the molecule `CN(C)Cc1ccc(S(=O)(=O)n2ccc(/C=C/C(=O)NO)c2)cc1.Cl`, the “Growth Rate” value is listed as 0.53 with HEK-293T (replicate number 1); 0.75 in the data set on HEK-293T (replicate number 2); 0.79 in the data set with Fibroblast (replicate number 1); -0.05 with Fibroblast (replicate number 2); 0.51 with U2OS (replicate number 1); -0.17 in the data set with U2OS (replicate number 2).
In the case of `CCCOc1cc(OCCCCN(C)C)cc(Oc2cc3c(cc2NS(=O)(=O)c2ccc(OC)c(OC)c2)n(C)c(=O)n3C)c1.O=C(O)C(F)(F)F`, the “Growth Rate” value was found to be 0.59 in the data set with HEK-293T (replicate number 1); 0.72 in the data set with HEK-293T (replicate number 2); 1 in the data set with Fibroblast (replicate number 1); 0.87 in the data set with U2OS (replicate number 1); 1 with U2OS (replicate number 2).
In the case of `O=C([O-])CCNc1cc(N2CCc3ccccc3CC2)nc(-c2cccnc2)n1.[Na+]`, the “Growth Rate” value with HEK-293T (replicate number 1) was determined as 0.83; in the data set with HEK-293T (replicate number 2) it was 0.92; in the data set on Fibroblast (replicate number 1), 1; in the data set with U2OS (replicate number 1) it was 0.55; in the data set on U2OS (replicate number 2), 1.
Consider `Cl.Cl.Nc1ncnc2c1ncn2[C@@H]1O[C@H](C(=O)N2CCN(CC(=O)Nc3cccc4c3CNC4=O)CC2)[C@@H](O)[C@H]1O`, for which the “Growth Rate” value with HEK-293T (replicate number 1) came out at 0.67; with HEK-293T (replicate number 2) it was 1; with Fibroblast (replicate number 1), 1; with U2OS (replicate number 1), 1; with U2OS (replicate number 2), 0.84.
As to `CCN(CCN(C)C)C(=O)CNCc1cc(C(N)=O)ccn1.Cl.O`, the “Growth Rate” value in the data set with HEK-293T (replicate number 1) is recorded as 0.74; with HEK-293T (replicate number 2), 0.94; in the data set on Fibroblast (replicate number 1), 0.65; with Fibroblast (replicate number 2), 0.4; with U2OS (replicate number 1), 0.89; in the data set with U2OS (replicate number 2), 0.8.
Consider `Br.N#Cc1ccc(-c2csc(NN=C3CCCC3)n2)cc1`, for which the “Growth Rate” value in the data set with HEK-293T (replicate number 1) is reported as -0.06; with HEK-293T (replicate number 2), 0.21; in the data set with Fibroblast (replicate number 1), 0.31; in the data set with Fibroblast (replicate number 2), 0.62; in the data set with U2OS (replicate number 1) it was 0.63; with U2OS (replicate number 2), 1.
With `CNCCN(C)Cc1cn[nH]c1-c1ccc(OC2CC(OCCC3CCOCC3)C2)cc1` (stereo unspecified), the “Growth Rate” value in the data set with HEK-293T (replicate number 1) was 0.64; with HEK-293T (replicate number 2), 0.82; in the data set with Fibroblast (replicate number 1) it was 0.77; in the data set on Fibroblast (replicate number 2) it was 0.95; in the data set with U2OS (replicate number 1) it was 0.23; in the data set with U2OS (replicate number 2), 1.
Regarding `COc1cc2c(NC3CCN(C)CC3)nc(N3CCCN(C)CC3)nc2cc1OCCCN(C)C`, the “Growth Rate” value is listed as 0.78 with HEK-293T (replicate number 1); 1 with HEK-293T (replicate number 2); 1 in the data set with Fibroblast (replicate number 1); 0.63 in the data set with U2OS (replicate number 1); 1 with U2OS (replicate number 2).
